ChEMBL document CHEMBL5096192, “Recent advancements in anti-leishmanial research: Synthetic strategies and structural activity relationships” (Eur J Med Chem, 2021)
≈ marks a conversion by molar mass, not a printed value.

Experiments:
Leishmania infantum [1] = experiment: Antileishmanial activity against Leishmania infantum MHOM/MA/67/ITMAP263 intracellular amastigotes infected in primary peritoneal mouse macrophages assessed as inhibition of parasite growth by cell based assay; assay type: functional, organism-based; settings: MHOM/MA/67/ITMAP263, Peritoneal macrophage
Leishmania mexicana [2] = experiment: Antileishmanial activity against mammalian stage Leishmania mexicana MNYC/BZ/62/M379 axenic amastigotes assessed as inhibition of […] incubated for 24 hrs by alamar blue assay; assay type: functional; settings: read-out: ED50 (the source's name)
Leishmania amazonensis [3] = experiment: Antileishmanial activity against promastigote form of Leishmania amazonensis MHOM/BR/77/LTB0016 incubated for 24 hrs by MTT assay; assay type: functional, organism-based; settings: MHOM/BR/77/LTB0016, 24 h
Leishmania amazonensis [4] = experiment: Antileishmanial activity against promastigote form of Leishmania amazonensis (MHOM/BR/71973/M2269) assessed as parasite growth inhibition by MTT assay; assay type: functional, organism-based
Leishmania amazonensis [5] = experiment: Antileishmanial activity against amastigote form of Leishmania amazonensis (MHOM/BR/71973/M2269) assessed as parasite growth inhibition by MTT assay; assay type: functional, organism-based
Leishmania major [6] = experiment: Antileishmanial activity against Leishmania major axenic amastigotes assessed as parasite growth inhibition by Alamar blue assay; assay type: functional, organism-based
Leishmania donovani [7] = experiment: Antileishmanial activity against promastigote form of wild-type Leishmania donovani MHOM/80/IN/Dd8 assessed as inhibition of parasite growth incubated for 48 hrs by MTT assay; assay type: functional, organism-based; settings: MHOM/80/IN/Dd8, 48 h
Leishmania panamensis [8] = experiment: Antileishmanial activity against Leishmania panamensis MHOM/CO/87/UA140pIR-GFP intracellular amastigotes infected in human U-937 cells assessed as parasite growth inhibition measured after 72 hrs by flow cytometry analysis; assay type: functional, organism-based; settings: U-937, 72 h
Trypanosoma cruzi = experiment: Antitrypanosomal activity against Trypanosoma cruzi Tulahuen intracellular amastigotes transfected with beta-galactosidase infected in human U-937 cells assessed as viability of intracellular amastigotes measured after 72 hrs by spectrophotometry; assay type: functional, organism-based; settings: U-937, 72 h
Leishmania amazonensis [9] = experiment: Antileishmanial activity against promastigote form of Leishmania amazonensis IFLA/BR/1967/PH8 assessed as parasite growth inhibition incubated for 72 hrs by MTT assay; assay type: functional, organism-based; settings: IFLA/BR/1967/PH8, 72 h
[10] = Cytotoxicity against BALB/c mouse peritoneal macrophages assessed as reduction in cell viability measured after 48 hrs by luminescence based CellTiter-Glo assay; assay type: toxicity, Peritoneal macrophage
Leishmania infantum [11] = experiment: Antileishmanial activity against promastigote form of Leishmania infantum BH 46 assessed as parasite growth inhibition measured after 48 hrs by Celltiter-Glo assay; assay type: functional, organism-based; settings: BH 46, 48 h
[12] = Selectivity index, ratio of CC50 for cytotoxicity against human THP1 cells to IC50 for antileishmanial activity against promastigote form of Leishmania donovani; assay type: toxicity, cell-based; settings: read-out: Ratio CC50/IC50
Leishmania donovani [13] = experiment: Antileishmanial activity against promastigote form of Leishmania donovani assessed as inhibition of promastigote growth incubated for 48 hrs by Alamar blue assay; assay type: functional, organism-based
Leishmania panamensis [14] = experiment: Antileishmanial activity against Leishmania panamensis MHOM/CO/87/UA140-EGFP intracellular amastigotes infected in U-937 cells assessed as parasite growth inhibition measured after 72 hrs by flow cytometry analysis; assay type: functional, organism-based; settings: U-937, 72 h
U-937 = experiment: Cytotoxicity against human U-937 cells assessed as reduction in cell viability measured after 72 hrs by MTT assay; assay type: functional; settings: read-out: LC50 (the source's name)
Leishmania infantum [15] = experiment: Antileishmanial activity against promastigote form of Leishmania infantum MHOM/BR/70/BH46 promastigote assessed as parasite growth inhibition incubated for 72 hrs by Neubauer chamber analysis; assay type: functional, organism-based; settings: MHOM/BR/70/BH46, 72 h
Leishmania major [16] = experiment: Antileishmanial activity against Leishmania major JISH118 promastigote infected in human THP-1 cells assessed as parasite growth inhibition measured after 48 hrs by Giemsa staining based analysis; assay type: functional, organism-based; settings: JISH118, THP-1, 48 h
Leishmania infantum [17] = experiment: Antileishmanial activity against Leishmania infantum MHOM/MA/67/ITMAP263 intracellular amastigotes infected in mouse bone marrow derived macrophage cells assessed as parasite growth inhibition measured after 24 hrs by DAPI staining based microscopic analysis; assay type: functional, organism-based; settings: MHOM/MA/67/ITMAP263, Macrophage
[18] = Cytotoxicity against mouse bone marrow-derived macrophage cells assessed as reduction in cell viability measured after 24 hrs by resazurin assay; assay type: toxicity, cell-based, BMDM; settings: bone marrow-derived macrophages
Leishmania braziliensis = experiment: Antileishmanial activity against promastigote form of Leishmania braziliensis MHOM/BR/75/M2904 promastigotes assessed as parasite growth inhibition incubated for 48 hrs by resazurin assay; assay type: functional, organism-based; settings: MHOM/BR/75/M2904, 48 h
Leishmania mexicana [19] = experiment: Antileishmanial activity against promastigote form of Leishmania mexicana assessed as inhibition of parasite growth measured for 10 days by Neubauer counting chamber based analysis; assay type: functional, organism-based; settings: 240 h
Leishmania donovani [20] = experiment: Antileishmanial activity against promastigote form of Leishmania donovani MHOM/IN/83/AG83 assessed as inhibition of promastigote growth incubated for 48 hrs by MTT reduction assay; assay type: functional, organism-based; settings: MHOM/IN/83/AG83, 48 h
Leishmania donovani [21] = experiment: Antileishmanial activity against Leishmania donovani MHOM/IN/83/AG83 intracellular amastigotes infected in mouse RAW264.7 cells assessed as parasite growth inhibition incubated for 48 hrs by Giemsa staining based microscopic analysis; assay type: functional, organism-based; settings: MHOM/IN/83/AG83, RAW264.7, 48 h

## COC(=O)c1ccc(NC(=O)CSc2nc3ccc(Cl)cc3n2Cc2cc(C)cc(C)c2)c(Cl)c1
Leishmania infantum [1]
  IC50: 6.82 µM

## CC1(C)CC[C@]2(NC(=O)N3CCC[C@H]3C(=O)O)CC[C@]3(C)C(=CC[C@@H]4[C@@]5(C)CC[C@@H]6OC(C)(C)OC[C@@]6(C)[C@@H]5CC[C@]43C)[C@@H]2C1
Leishmania mexicana [2]
  EC50: 4 µM

## NC(=S)N/N=C(\C=C\c1ccc(Cl)cc1)c1ccccc1
Leishmania amazonensis [3]
  IC50: 5.22 µM

## CCCc1cc(OC)c2oc(=O)c(C(=O)c3ccc([N+](=O)[O-])cc3)cc2c1
Leishmania amazonensis [4]
  IC50: 3.53 µM
Leishmania amazonensis [5]
  IC50: 12 µM

## COc1ccc(-c2nn(-c3ccccc3)cc2/C=C/C(=O)c2ccc([N+](=O)[O-])cc2)cc1
Leishmania major [6]
  IC50: 2.3 µM

## Clc1ccc(COc2ccc(-c3nc4ccccc4o3)cc2)c(Cl)c1
Leishmania donovani [7]
  IC50: 57 µM

## CC(CCCCCCC[n+]1ccn(C)c1)Oc1ccc(C(=O)/C=C/c2ccco2)cc1 (centres undefined)
Leishmania panamensis [8]
  EC50: 0.78 µM
Trypanosoma cruzi
  EC50: 0.66 µM

## CN(C)CCCn1cc(/C=C/C(=O)c2ccc(Cl)cc2)c2ccccc21
Leishmania donovani [7]
  IC50: 21.5 µM

## CCCCCCCCCCCCCCCCOP(=O)([O-])OCC[N+](C)(C)C [MILTEFOSINE]
Leishmania donovani [7]
  IC50: 24.2 µM
Leishmania infantum [1]
  IC50: 4.5 µM

## O=C(CC[Se]c1ccnc2cc(Cl)ccc12)Nc1ccc([N+](=O)[O-])cc1
Leishmania amazonensis [9]
  IC50: 10.8 µg/mL (≈ 24.9 µM)

## COC(=O)[C@]12CCC(C)(C)C[C@H]1C1=CC[C@@H]3[C@@]4(C)CC[C@@H]5O[C@H](c6ccccc6C(=O)O)OC[C@@]5(C)[C@@H]4CC[C@@]3(C)[C@]1(C)CC2
Leishmania mexicana [2]
  EC50: 5 µM

## COc1ccc(-c2csc(N/N=C/c3ccccn3)n2)cc1
[10]
  CC50 at 48 h: 1.35 µM
Leishmania infantum [11]
  IC50: 2.78 µM

## Cc1cc(N2C(=O)C(Cl)=C(Cl)C2=O)ccc1[N+](=O)[O-]
[12]
  selectivity ratio: > 781
Leishmania donovani [13]
  IC50: < 0.0128 µg/mL

## O=C1C=C(c2ccc(C(F)(F)F)cc2)S(=O)(=O)c2ccc(F)cc21
Leishmania panamensis [14]
  EC50: 3.24 µM
U-937
  CC50: 561 µM

## CCc1ccc(NC(=S)N/N=C/c2c[nH]c3c(C)cc(Br)cc23)cc1
Leishmania infantum [15]
  IC50: 4.36 µM

## O=C(C[Se]CC(=O)Nc1ccc([N+](=O)[O-])cc1)Nc1ccc([N+](=O)[O-])cc1
Leishmania amazonensis [9]
  IC50: 5.67 µg/mL (≈ 13 µM)

## O=C(/C=C/c1ccco1)c1ccc(OCCCCCOc2cccc3cccnc23)cc1
Leishmania panamensis [8]
  EC50: 13.8 µM

## Cc1cccc(Nc2nnc(-c3ccc(C(c4c[nH]c5ccccc45)c4c[nH]c5ccccc45)cc3)s2)c1
Leishmania major [16]
  IC50: 0.7 µM

## COc1ccc(-c2nn(-c3ccccc3)cc2/C=N/N=C/c2c(C)nn(-c3ccccc3)c2Cl)cc1
Leishmania major [6]
  IC50: 1.45 µM

## CCCCCCCCNCc1ccc2c(c1)C(=O)CC(C)(C)O2
Leishmania infantum [17]
  IC50: 24.6 µM
[18]
  CC50 at 24 h: 40.2 µM

## Clc1cccc(Nc2nnc(-c3ccc(C(c4c[nH]c5ccccc45)c4c[nH]c5ccccc45)cc3)s2)c1
Leishmania major [16]
  IC50: 0.7 µM

## Cn1cc[n+](CCCOc2ccc(C(=O)/C=C/c3ccco3)cc2)c1
Leishmania panamensis [8]
  EC50: 4.65 µM

## CC(C)=CC1=C(OC(=O)CCc2cn(-c3ccc(C)cc3)nn2)C(=O)c2ccccc2C1=O
Leishmania braziliensis
  IC50: 27.1 µM

## Fc1ccc(Nc2cnc3ccccc3c2)cc1
Leishmania mexicana [19]
  IC50: 41.9 µM

## COc1ccc(-c2nnc(/C=C/c3cn(-c4ccccc4)nc3-c3ccccc3)o2)cc1OC
Leishmania donovani [20]
  IC50: 40.1 µg/mL (≈ 89 µM)
Leishmania donovani [21]
  IC50: 66.8 µg/mL (≈ 148 µM)

## CN(C)CCCn1cc(/C=C/C(=O)c2ccc(I)cc2)c2ccccc21
Leishmania donovani [7]
  IC50: 24.2 µM
